pIC50: −log10 of the molar value.

Stromal cell-derived factor 1, sequence (P48061 whole entry): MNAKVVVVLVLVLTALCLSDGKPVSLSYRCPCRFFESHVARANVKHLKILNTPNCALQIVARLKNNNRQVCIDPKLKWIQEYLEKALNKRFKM

The test has as its target Stromal cell-derived factor 1 (Homo sapiens, UniProt P48061). The test can be described thus: Tryptophan Fluorescence Assay. The note with it: 20 °C. From the text: Binding of chalcone 4 and chlcone 1 to CSCL12 was examined by monitoring changes in the emission intensity of intrinsic Trp fluorescence of the chemokine.
As usually defined, the pIC50 is −log10 of the IC50, conventionally taken in molar units. A high value points to a small IC50. Regarding `COc1cc(/C=C/C(=O)c2ccc(Cl)cc2)ccc1O` [1-(4-Chloro-phenyl)-3-(4-hydroxy-3-methoxy-phenyl)-propenone], the pIC50 was 3.82.

On to `O=C(/C=C/c1ccc(O)cc1)c1ccccc1O` [(E)-1-(2-hydroxyphenyl)-3-(4-hydroxyphenyl)prop-2-en-1-one], for which the pIC50 is 4.62.

As to `O=C(/C=C/c1ccc(O)cc1)c1ccccc1` [Chalcone 2], the pIC50 was 4.82.

In turn, `O=C(/C=C/c1ccccc1)c1ccccc1` [Chalcone, 13] showed a pIC50 below 3.30.
